Test results from the supplement of paper PMC10307832.

What was measured:
Assay in all cases: relative viability (nuclei count vs DMSO), 5 days (fraction); higher = more cells survive
[1] = compound: CN(C)CC1=CC(=CC=C1)N=C(C2=CC=CC=C2)C3=C(NC4=C3C=CC(=C4)C(=O)N(C)C)O + O=C(c1cc(Cc2n[nH]c(=O)c3ccccc23)ccc1F)N1CCN(C(=O)C2CC2)CC1 [Olaparib] (partner 8 µM)
Summary of the method: (§1)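 The day after seeding in 1536-well plates, lung cancer cell lines were treated by pin tool with a single drug, or with a fixed anchor-drug dose together with five library-drug doses (not always all listed) in √10 steps. After 5 days, a combined fix-and-stain solution (final 0.05% Triton X-100, 1% formaldehyde, 1 ug/ml Hoechst) was added. Nuclei counted on 4× images gave relative viability as treated counts over vehicle counts, reported as the median of duplicate plates.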

[2] = compound: CN(C)CC1=CC(=CC=C1)N=C(C2=CC=CC=C2)C3=C(NC4=C3C=CC(=C4)C(=O)N(C)C)O + N=C(N)NC(=N)NCCc1ccccc1 [Phenformin] (partner 250 µM)
Summary of the method: as §1

[3] = compound: CN(C)CC1=CC(=CC=C1)N=C(C2=CC=CC=C2)C3=C(NC4=C3C=CC(=C4)C(=O)N(C)C)O + CC(=O)Nc1cccc(-n2c(=O)n(C3CC3)c(=O)c3c(Nc4ccc(I)cc4F)n(C)c(=O)c(C)c32)c1 [Trametinib] (partner 0.02 µM)
Summary of the method: as §1

[4] = compound: CN(C)CC1=CC(=CC=C1)N=C(C2=CC=CC=C2)C3=C(NC4=C3C=CC(=C4)C(=O)N(C)C)O
Summary of the method: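 A plate was accepted only when its control CV was below 25% and the cells had doubled at least once. Viability is defined from nuclear counts as treated wells divided by vehicle wells, with the median taken across plates. That median covers lung cancer cell lines grown in 1536-well plates, dosed by pinning at five √10-spaced library-drug concentrations, and counted in MetaXpress from 4× Hoechst images after 5 days.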

Cell Line	relative viability ([1]; first compound 0.08 µM)	relative viability ([1]; first compound 0.253 µM)	relative viability ([1]; first compound 0.8 µM)	relative viability ([1]; first compound 2.53 µM)	relative viability ([1]; first compound 8 µM)	relative viability ([2]; first compound 0.08 µM)	relative viability ([2]; first compound 0.253 µM)	relative viability ([2]; first compound 0.8 µM)	relative viability ([2]; first compound 2.53 µM)	relative viability ([2]; first compound 8 µM)	relative viability ([3]; first compound 0.08 µM)	relative viability ([3]; first compound 0.253 µM)	relative viability ([3]; first compound 0.8 µM)	relative viability ([3]; first compound 2.53 µM)	relative viability ([3]; first compound 8 µM)	relative viability ([4]; 0.08 µM)	relative viability ([4]; 0.253 µM)	relative viability ([4]; 0.8 µM)	relative viability ([4]; 2.53 µM)	relative viability ([4]; 8 µM)
NCI-H322M	0.68	0.753	0.679	0.645	0.661	0.685	0.801	0.669	0.631	0.551	0.49	0.497	0.477	0.487	0.468	0.823	0.996	0.794	0.75	0.651
NCI-H1355	0.771	0.707	0.772	0.752	0.732	0.483	0.463	0.421	0.421	0.392	0.472	0.407	0.314	0.392	0.51	1.03	0.992	0.836	0.993	0.979
COR-L 105	0.909	0.732	0.675	0.612	0.75	0.464	0.546	0.427	0.455	0.478	0.508	0.447	0.381	0.492	0.398	1.04	1.03	0.926	0.928	0.787
NCI-H1915	0.257	0.271	0.249	0.249	0.251	0.368	0.35	0.383	0.361	0.352	0.298	0.278	0.32	0.289	0.265	1.01	0.986	1.07	1.01	0.992
NCI-H1650	0.821	0.787	0.753	0.937	0.75	0.481	0.55	0.412	0.49	0.4	0.69	0.569	0.63	0.604	0.601	0.967	0.961	0.982	1.04	0.909
NCI-H2126	0.885	0.87	0.907	0.912	0.957	0.522	0.553	0.542	0.511	0.557	0.6	0.59	0.484	0.602	0.55	1.01	0.988	0.941	1.03	0.903
LCLC-103H	0.751	0.782	0.773	0.775	0.749	0.347	0.368	0.304	0.337	0.291	0.707	0.623	0.642	0.675	0.619	0.951	1.07	0.931	0.986	0.915
HARA	0.622	1.03	0.762	0.758	0.967	0.413	0.454	0.384	0.412	0.373	0.715	0.632	0.622	0.59	0.84	0.953	0.946	0.742	0.986	1.08
NCI-H727	–	0.697	0.672	0.672	0.86	0.595	0.474	0.53	0.578	0.573	–	0.368	0.428	0.391	0.426	0.921	0.962	0.891	1.02	0.821
LOU-NH91	0.931	0.867	0.817	0.906	0.89	0.697	0.652	0.548	0.714	0.699	0.76	0.807	0.759	0.818	0.788	0.954	1.03	0.789	0.96	0.913
LXF-289	1.11	1.03	1.03	0.993	1.03	0.499	0.489	0.518	0.518	0.473	0.669	0.628	0.643	0.573	0.655	1.01	0.955	0.993	0.971	0.955
NCI-H1666	0.763	0.761	0.785	0.754	0.797	0.569	0.579	0.615	0.58	0.585	0.966	0.879	0.73	0.85	0.928	1.07	0.994	0.959	1.11	1.12
NCI-H441	0.728	0.588	0.627	0.461	0.499	0.828	0.816	0.784	0.878	0.886	0.495	0.508	0.354	0.444	0.462	1.03	1.14	1.2	0.984	0.923
SK-LU-1	0.483	0.47	0.516	0.431	0.385	0.41	0.573	0.597	0.473	0.39	0.448	0.446	0.459	0.445	0.385	1.04	1.02	0.996	0.993	0.866
ChaGo-K-1	0.386	0.458	0.41	0.355	0.415	0.495	0.507	0.479	0.436	0.433	0.857	0.89	0.882	0.835	0.808	0.948	0.993	1.02	0.947	1.01
NCI-H2228	0.781	0.542	0.623	0.689	0.557	0.403	0.308	0.312	0.254	0.357	0.625	0.417	0.376	0.457	0.421	1.04	1.06	0.874	0.879	0.789
